Source: patent US20150273070A1, “MODIFIED RELEASE OF 4-METHYL-3-[[4-(3-PYRIDINYL)-2-PYRIMIDINYL]AMINO]-N-[5-(4-METHYL-1H-IMIDAZOL-1-YL)-3-(TRIFLOUOROMETHYL)PHENYL] BENZAMIDE SOLUBILIZED USING ORGANIC ACIDS” (Novartis AG, priority 2011, published 2015)

Columns and labels:
[1] = Solubility of nilotinib in ethanol with citric acid; type: physicochemical
[2] = Solubility of nilotinib in lactic acid; type: physicochemical
Source text: Nilotinib solubilized modified release solid dosage forms containing lactic acid were developed. […] Surfactants and/or polymers were used to prevent the precipitation after solubilized nilotinib is released from the formulation matrix. Due to the liquid nature of lactic acid this formulation matrix is in the liquid form. However, by incorporation of additional suitable excipients, the formulation could be solidified at room temperature. This improved the physical and chemical stability of nilotinib in the formulation. In addition, the solid state also provided the opportunity to modulate the drug release rate.

solubility of the drug in ethanol [1]: remarkably high solubility
solubility ([2]; lactic acid, organic solvent or mixture, at 65° C.): > 600 mg/mL
Compound: Cc1cn(-c2cc(NC(=O)c3ccc(C)c(Nc4nccc(-c5cccnc5)n4)c3)cc(C(F)(F)F)c2)cn1 [nilotinib, 4-Methyl-3-[[4-(3-pyrldinyl)-2-pyrimidinyl]amino]-N-[5-(4-methyl-1H-imidazol-1-yl)-3-(trifluoromethyl)phenyl] benzamide]
solubility at intestinal pH ([2]; in presence of surfactants and/or polymers): could maintain its solubility at intestinal pH
